Assay results: US11186554B2, “Non-fused tricyclic compounds” (VIVACE THERAPEUTICS, INC., priority 2017, dated 2021)

tested on: firefly luciferase activity; assay: Dual-Glo firefly/renilla luciferase reporter assay in cells; assay type: cell-based; conditions: 24 h, read-out: Firefly Luciferase IC50 (μM)

Row | SMILES | IC50
1 | OCCn1nnc(-c2cc(Cl)ccc2Nc2ccc(C(F)(F)F)cc2)n1 [Compound 238, 2-(5-(5-chloro-2-((4-(trifluoromethyl)phenyl)amino)phenyl)-2H-tetrazol-2-yl)ethanol] | < 0.1 µM
2 | OCCn1nnc(-c2ccc(Cl)cc2Nc2ccc(C(F)(F)F)cc2)n1 [Compound 239, 2-(5-(4-chloro-2-((4-(trifluoromethyl)phenyl)amino)phenyl)-2H-tetrazol-2-yl)ethanol] | < 0.1 µM
3 | COc1ccc(Nc2ccc(C(F)(F)F)cc2)c(-c2nnn(CCO)n2)c1 [Compound 240, 2-[5-[5-methoxy-2-[4-(trifluoromethyl)anilino]phenyl]tetrazol-2-yl]ethanol] | < 0.1 µM
4 | COc1ccc(-c2nnn(CCO)n2)c(Nc2ccc(C(F)(F)F)cc2)c1 [Compound 241, 2-[5-[4-methoxy-2-[4-(trifluoromethyl)anilino]phenyl]tetrazol-2-yl]ethanol] | < 0.1 µM
5 | Cc1ccc(Nc2ccc(C(F)(F)F)cc2)c(-c2nnn(CCO)n2)c1 [Compound 242, 2-(5-(5-methyl-2-((4-(trifluoromethyl)phenyl)amino)phenyl)-2H-tetrazol-2-yl)ethanol] | < 0.1 µM
6 | Cc1ccc(-c2nnn(CCO)n2)c(Nc2ccc(C(F)(F)F)cc2)c1 [Compound 243, 2-(5-(4-methyl-2-((4-(trifluoromethyl)phenyl)amino)phenyl)-2H-tetrazol-2-yl)ethanol] | < 0.1 µM
7 | OCCn1nnc(-c2ccccc2Nc2cccc(Cl)c2)n1 [Compound 250, 2-(5-(2-((3-chlorophenyl)amino)phenyl)-2H-tetrazol-2-yl)ethanol] | 1 to 5 µM
8 | OCCn1nnc(-c2cc(OC(F)F)ccc2Nc2ccc(C(F)(F)F)cc2)n1 [Compound 260, 2-(5-(5-(difluoromethoxy)-2-((4-(trifluoromethyl)phenyl)amino)phenyl)-2H-tetrazol-2-yl)ethanol] | < 0.1 µM
9 | OCCn1nnc(-c2cc(OC(F)(F)F)ccc2Nc2ccc(C(F)(F)F)cc2)n1 [Compound 261, 2-(5-(5-(trifluoromethoxy)-2-((4-(trifluoromethyl)phenyl)amino)phenyl)-2H-tetrazol-2-yl)ethanol] | 0.1 to 1 µM
10 | OCCn1nnc(-c2cc(C(F)(F)F)ccc2Nc2ccc(C(F)(F)F)cc2)n1 [Compound 262, 2-(5-(5-(trifluoromethyl)-2-((4-(trifluoromethyl)phenyl)amino)phenyl)-2H-tetrazol-2-yl)ethanol] | 0.1 to 1 µM

same assay, conditions: 24 hrs compound treatment, starting from 3 uM, 1:3 dilution, 10 points; read-out: Firefly Luciferase IC50

Row | SMILES | IC50
11 | FC(F)(F)c1ccc(Nc2ccccc2-c2nnn(C3CCNC3)n2)cc1 (centres unmarked) [Compound 227, 2-(2-(pyrrolidin-3-yl)-2H-tetrazol-5-yl)-N-(4-(trifluoromethyl)phenyl)aniline] | 0.1 to 1 µM
12 | NCCn1nnc(-c2ccccc2Nc2ccc(C(F)(F)F)cc2)n1 [Compound 228, 2-(2-(2-aminoethyl)-2H-tetrazol-5-yl)-N-(4-(trifluoromethyl)phenyl)aniline] | 0.1 to 1 µM
13 | CC(N)Cn1nnc(-c2ccccc2Nc2ccc(C(F)(F)F)cc2)n1 (centres unmarked) [Compound 229, 2-(2-(2-aminopropyl)-2H-tetrazol-5-yl)-N-(4-(trifluoromethyl)phenyl)aniline] | 0.1 to 1 µM
14 | O[C@@H]1CNC[C@H]1n1nnc(-c2ccccc2Nc2ccc(C(F)(F)F)cc2)n1 [Compound 233, (3R,4R)-4-(5-(2-((4-(trifluoromethyl)phenyl)amino)phenyl)-2H-tetrazol-2-yl)pyrrolidin-3-ol] | 0.1 to 1 µM
15 | O[C@H]1CNC[C@@H]1n1nnc(-c2ccccc2Nc2ccc(C(F)(F)F)cc2)n1 [Compound 234, (3S,4S)-4-(5-(2-((4-(trifluoromethyl)phenyl)amino)phenyl)-2H-tetrazol-2-yl)pyrrolidin-3-ol] | 0.1 to 1 µM
16 | OC1(Cn2nnc(-c3ccccc3Nc3ccc(C(F)(F)F)cc3)n2)CSC1 [Compound 244, 3-[[5-[2-[4-(trifluoromethyl)anilino]phenyl]tetrazol-2-yl]methyl]thietan-3-ol] | < 0.1 µM
17 | [O-][S+]1CC(O)(Cn2nnc(-c3ccccc3Nc3ccc(C(F)(F)F)cc3)n2)C1 (centres unmarked) [Compound 245, 1-oxo-3-[[5-[2-[4-(trifluoromethyl)anilino]phenyl]tetrazol-2-yl]methyl]thietan-3-ol] | 0.1 to 1 µM
18 | OCCn1nnc(-c2ccccc2Nc2ccc(Cl)c(Cl)c2)n1 [Compound 251, 2-(5-(2-((3,4-dichlorophenyl)amino)phenyl)-2H-tetrazol-2-yl)ethanol] | 0.1 to 1 µM
19 | OCCn1nnc(-c2ccccc2Nc2cc(Cl)c(Cl)c(Cl)c2)n1 [Compound 253, 2-(5-(2-((3,4,5-trichlorophenyl)amino)phenyl)-2H-tetrazol-2-yl)ethanol] | 1 to 5 µM
20 | CCc1ccc(Nc2ccc(C(F)(F)F)cc2)c(-c2nnn(CCO)n2)c1 [Compound 256, 2-[5-[5-ethyl-2-[4-(trifluoromethyl)anilino]phenyl]tetrazol-2-yl]ethanol] | < 0.1 µM
21 | FC(F)(F)c1ccc(Nc2ccccc2-c2nnn(C3COCOC3)n2)cc1 [Compound 263, 2-(2-(1,3-dioxan-5-yl)-2H-tetrazol-5-yl)-N-(4-(trifluoromethyl)phenyl)aniline] | < 0.1 µM
22 | OCC(CO)n1nnc(-c2ccccc2Nc2ccc(C(F)(F)F)cc2)n1 [Compound 264, 2-(5-(2-((4-(trifluoromethyl)phenyl)amino)phenyl)-2H-tetrazol-2-yl)propane-1,3-diol] | < 0.1 µM

Next, values leading:

Row | IC50 | SMILES
23 | 0.1 to 1 µM | COC1CCCC1n1nnc(-c2ccccc2Nc2ccc(C(F)(F)F)cc2)n1 (centres unmarked) [Compound 214, 2-(2-(2-methoxycyclopentyl)-2H-tetrazol-5-yl)-N-(4-(trifluoromethyl)phenyl) Aniline]
24 | 0.1 to 1 µM | NCCCn1nnc(-c2ccccc2Nc2ccc(C(F)(F)F)cc2)n1 [Compound 216, 2-(2-(3-aminopropyl)-2H-tetrazol-5-yl)-N-(4-(trifluoromethyl)phenyl)aniline]
25 | < 0.1 µM | CC(CN)n1nnc(-c2ccccc2Nc2ccc(C(F)(F)F)cc2)n1 (centres unmarked) [Compound 218, 2-(2-(1-aminopropan-2-yl)-2H-tetrazol-5-yl)-N-(4-(trifluoromethyl)phenyl) Aniline]
26 | 0.1 to 1 µM | CNCCn1nnc(-c2ccccc2Nc2ccc(C(F)(F)F)cc2)n1 [Compound 219, 2-(2-(2-(methylamino)ethyl)-2H-tetrazol-5-yl)-N-(4-(trifluoromethyl)phenyl) Aniline]
27 | 1 to 5 µM | CNCCCn1nnc(-c2ccccc2Nc2ccc(C(F)(F)F)cc2)n1 [Compound 220, 2-(2-(3-(methylamino)propyl)-2H-tetrazol-5-yl)-N-(4-(trifluoromethyl)phenyl) Aniline]
28 | 1 to 5 µM | FC(F)(F)c1ccc(Nc2ccccc2-c2nnn(C3CNC3)n2)cc1 [Compound 221, 2-(2-(azetidin-3-yl)-2H-tetrazol-5-yl)-N-(4-(trifluoromethyl)phenyl)aniline]
29 | 0.1 to 1 µM | NCCn1cnc(-c2ccccc2Nc2ccc(C(F)(F)F)cc2)n1 [Compound 230, 2-(1-(2-aminoethyl)-1H-1,2,4-triazol-3-yl)-N-(4-(trifluoromethyl)phenyl)aniline]
30 | < 0.1 µM | OCCn1nnc(-c2ccccc2Nc2ccc(C(F)(F)F)c(Cl)c2)n1 [Compound 246, 2-(5-(2-((3-chloro-4-(trifluoromethyl)phenyl)amino)phenyl)-2H-tetrazol-2-yl)ethanol]
31 | 0.1 to 1 µM | OCCn1nnc(-c2ccccc2Nc2ccc(SC(F)(F)F)cc2)n1 [Compound 248, 2-(5-(2-((4-((trifluoromethyl)thio)phenyl)amino)phenyl)-2H-tetrazol-2-yl)ethanol]
32 | < 0.1 µM | OCCn1nnc(-c2cc(Br)ccc2Nc2ccc(C(F)(F)F)cc2)n1 [Compound 254, 2-[5-[5-bromo-2-[4-(trifluoromethyl)anilino]phenyl]tetrazol-2-yl]ethanol]
33 | < 0.1 µM | OCCn1nnc(-c2cc(C3CC3)ccc2Nc2ccc(C(F)(F)F)cc2)n1 [Compound 255, 2-(5-(5-cyclopropyl-2-((4-(trifluoromethyl)phenyl)amino)phenyl)-2H-tetrazol-2-yl)ethanol]
34 | 0.1 to 1 µM | NCC(CO)n1nnc(-c2ccccc2Nc2ccc(C(F)(F)F)cc2)n1 (centres unmarked) [Compound 259, 3-amino-2-(5-(2-((4-(trifluoromethyl)phenyl)amino)phenyl)-2H-tetrazol-2-yl)propan-1-ol]
35 | 0.1 to 1 µM | OCCn1nnc(-c2cc(C(F)F)ccc2Nc2ccc(C(F)(F)F)cc2)n1 [Compound 266, 2-[5-[5-(difluoromethyl)-2-[4-(trifluoromethyl)anilino]phenyl]tetrazol-2-yl]ethanol]
